Laboratory results from PubChem BioAssay (NCI).
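Compound exposure: 48 hours, 5 concentrations, 96-well plates. TGI is the concentration that stops growth completely.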

How the values were obtained:
Test in all cases: NCI-60 cell line screen, 48 h
[1] = test system: RXF-631 renal
[2] = test system: SF-268 CNS
[3] = test system: SF-539 CNS
[4] = test system: UO-31 renal
[5] = test system: A498 renal
[6] = test system: SR leukemia
[7] = test system: SK-OV-3 ovarian
[8] = test system: OVCAR-3 ovarian
[9] = test system: SK-MEL-5 melanoma
[10] = test system: MOLT-4 leukemia
[11] = test system: DLD-1 colon
[12] = test system: SK-MEL-28 melanoma
[13] = test system: HCT-116 colon
[14] = test system: OVCAR-8 ovarian
[15] = test system: DMS 273 small cell lung
[16] = test system: HCT-15 colon
[17] = test system: CCRF-CEM leukemia
[18] = test system: HOP-62 NSCLC
[19] = test system: U251 CNS
[20] = test system: HL-60(TB) leukemia
[21] = test system: SNB-75 CNS
[22] = test system: LOX IMVI melanoma
[23] = test system: OVCAR-4 ovarian
[24] = test system: UACC-62 melanoma
[25] = test system: HT29 colon
[26] = test system: COLO 205 colon
[27] = test system: TK-10 renal
[28] = test system: K-562 leukemia
[29] = test system: ACHN renal
[30] = test system: UACC-257 melanoma
[31] = test system: SK-MEL-2 melanoma
[32] = test system: 786-0 renal
[33] = test system: SNB-78 CNS
[34] = test system: EKVX NSCLC
[35] = test system: A549 NSCLC
[36] = test system: SNB-19 CNS
[37] = test system: KM20L2 colon
[38] = test system: SW-620 colon
[39] = test system: RPMI-8226 leukemia
[40] = test system: RXF 393 renal
[41] = test system: M14 melanoma
[42] = test system: NCI-H226 lung
[43] = test system: NCI-H522 lung
[44] = test system: XF 498 CNS
[45] = test system: NCI-H460 lung
[46] = test system: M19-MEL melanoma
[47] = test system: IGROV1 ovarian
[48] = test system: DMS 114 small cell lung
[49] = test system: CAKI-1 renal
[50] = test system: SF-295 CNS
[51] = test system: KM12 colon
[52] = test system: NCI-H23 lung
[53] = test system: LXFL 529 NSCLC
[54] = test system: HCC-2998 colon
[55] = test system: MALME-3M melanoma
[56] = test system: SN12C renal
[57] = test system: HOP-18 NSCLC
[58] = test system: HOP-92 NSCLC

CC1CCN(CCC(=O)CC(c2ccccc2)c2c(O)c3ccccc3oc2=O)CC1 (stereo not given)
TGI [1]: > 100 µM
TGI [2]: > 100 µM
TGI [3]: > 100 µM
TGI [4]: > 100 µM
TGI [5]: > 100 µM
TGI [6]: > 100 µM
TGI [7]: > 100 µM
TGI [8]: > 100 µM
TGI [9]: > 100 µM
TGI [10]: > 100 µM
TGI [11]: > 100 µM
TGI [12]: > 100 µM
TGI [13]: > 100 µM
TGI [14]: > 100 µM
TGI [15]: > 100 µM
TGI [16]: > 100 µM
TGI [17]: > 100 µM
TGI [18]: > 100 µM
TGI [19]: > 100 µM
TGI [20]: > 100 µM
TGI [21]: > 100 µM
TGI [22]: > 100 µM
TGI [23]: > 100 µM
TGI [24]: > 100 µM
TGI [25]: > 100 µM
TGI [26]: > 100 µM
TGI [27]: > 100 µM
TGI [28]: > 100 µM
TGI [29]: > 100 µM
TGI [30]: > 100 µM
TGI [31]: > 100 µM
TGI [32]: > 100 µM
TGI [33]: > 100 µM
TGI [34]: > 100 µM
TGI [35]: > 100 µM
TGI [36]: > 100 µM
TGI [37]: > 100 µM
TGI [38]: > 100 µM
TGI [39]: > 100 µM
TGI [40]: > 100 µM
TGI [41]: > 100 µM
TGI [42]: > 100 µM
TGI [43]: > 100 µM
TGI [44]: > 100 µM
TGI [45]: > 100 µM
TGI [46]: > 100 µM
TGI [47]: > 100 µM
TGI [48]: > 100 µM
TGI [49]: > 100 µM
TGI [50]: > 100 µM
TGI [51]: > 100 µM
TGI [52]: > 100 µM

COC1=CC(=C(C#N)C(=Nc2ccccc2)SC)C=C(OC)C1=O
TGI [1]: > 100 µM
TGI [3]: > 100 µM
TGI [4]: > 100 µM
TGI [5]: 80 µM
TGI [7]: > 100 µM
TGI [8]: > 100 µM
TGI [9]: 42.7 µM
TGI [10]: 53.1 µM
TGI [11]: 77.3 µM
TGI [53]: 36.2 µM
TGI [12]: > 100 µM
TGI [13]: > 100 µM
TGI [14]: > 100 µM
TGI [15]: > 100 µM
TGI [16]: > 100 µM
TGI [17]: 43.5 µM
TGI [19]: 2.62 µM
TGI [21]: > 100 µM
TGI [22]: > 100 µM
TGI [54]: > 100 µM
TGI [24]: > 100 µM
TGI [25]: > 100 µM
TGI [26]: > 100 µM
TGI [27]: > 100 µM
TGI [28]: 63.1 µM
TGI [55]: > 100 µM
TGI [29]: > 100 µM
TGI [30]: > 100 µM
TGI [32]: > 100 µM
TGI [56]: > 100 µM
TGI [33]: > 100 µM
TGI [34]: > 100 µM
TGI [35]: > 100 µM
TGI [38]: > 100 µM
TGI [39]: 52.2 µM
TGI [40]: 78 µM
TGI [57]: > 100 µM
TGI [43]: > 100 µM
TGI [45]: > 100 µM
TGI [46]: > 100 µM
TGI [47]: > 100 µM
TGI [58]: 9.97 µM
TGI [49]: > 100 µM
TGI [50]: > 100 µM
TGI [51]: > 100 µM
TGI [52]: > 100 µM

CCOCc1cc(=O)c2c(O)cc3c(c2o1)CCC(C)(C)O3
TGI [1]: > 100 µM
TGI [2]: > 100 µM
TGI [3]: > 100 µM
TGI [4]: > 100 µM
TGI [5]: > 100 µM
TGI [7]: > 100 µM
TGI [8]: > 100 µM
TGI [9]: > 100 µM
TGI [10]: > 100 µM
TGI [11]: > 100 µM
TGI [53]: > 100 µM
TGI [12]: > 100 µM
TGI [14]: > 100 µM
TGI [15]: > 100 µM
TGI [16]: > 100 µM
TGI [17]: > 100 µM
TGI [19]: > 100 µM
TGI [20]: > 100 µM
TGI [21]: > 100 µM
TGI [22]: > 100 µM
TGI [24]: > 100 µM
TGI [25]: > 100 µM
TGI [26]: > 100 µM
TGI [27]: > 100 µM
TGI [28]: > 100 µM
TGI [55]: > 100 µM
TGI [29]: > 100 µM
TGI [31]: > 100 µM
TGI [56]: > 100 µM
TGI [33]: > 100 µM
TGI [34]: > 100 µM
TGI [36]: > 100 µM
TGI [37]: > 100 µM
TGI [38]: > 100 µM
TGI [39]: > 100 µM
TGI [57]: > 100 µM
TGI [41]: > 100 µM
TGI [42]: > 100 µM
TGI [43]: > 100 µM
TGI [45]: > 100 µM
TGI [46]: > 100 µM
TGI [47]: > 100 µM
TGI [58]: > 100 µM
TGI [48]: > 100 µM
TGI [49]: > 100 µM
TGI [50]: > 100 µM
TGI [52]: > 100 µM
